Data published in US10548861B2 (Academia Sinica, priority 2015, dated 2020).
Where two headings read alike, the source gives them in different places.

Assays:
Granta-519 = conditions: TK, AEW, SOR, TOPO, publically accessible data (Broad, Sanger), read-out: cytotoxicity IC50; cited from earlier work
Mino [1] = conditions: TK, AEW, SOR, TOPO, publically accessible data (Broad, Sanger), read-out: cytotoxicity IC50; cited from earlier work
Ly10 = conditions: TK, AEW, SOR, TOPO, publically accessible data (Broad, Sanger), read-out: cytotoxicity IC50; cited from earlier work
BCI-NSI hTERT = assay: 72 hr cytotoxicity: Bronchial epithelium; type: cell-based; conditions: Homo sapiens, 72 h
FTE-hTERT = assay: 72 hr cytotoxicity: Fallopian epithelium; type: cell-based; conditions: Homo sapiens, 72 h
BMMSC = assay: 72 hr cytotoxicity: BM Mesenchyme; type: cell-based; conditions: Homo sapiens, 72 h
H211 = assay: 72 hr cytotoxicity: SCLC variant; type: cell-based; conditions: Homo sapiens, NCI-H211
H524 = assay: 72 hr cytotoxicity: SCLC variant; type: cell-based; conditions: Homo sapiens, NCI-H524
H128 = assay: 72 hr cytotoxicity: SCLC classic; type: cell-based; conditions: Homo sapiens, NCI-H128
H187 = assay: 72 hr cytotoxicity: SCLC classic; type: cell-based; conditions: Homo sapiens, NCI-H187
H209 = assay: 72 hr cytotoxicity: SCLC classic; type: cell-based; conditions: Homo sapiens, NCI-H209
H249 = assay: 72 hr cytotoxicity: SCLC classic; type: cell-based; conditions: Homo sapiens
H417 = assay: 72 hr cytotoxicity: SCLC variant; type: cell-based; conditions: Homo sapiens, NCI-H417
H526 = assay: 72 hr cytotoxicity: SCLC variant; type: cell-based; conditions: Homo sapiens, NCI-H526
H562 = assay: 72 hr cytotoxicity: SCLC classic; type: cell-based; conditions: Homo sapiens
H60 = assay: 72 hr cytotoxicity: SCLC classic; type: cell-based; conditions: Homo sapiens
H69 = assay: 72 hr cytotoxicity: SCLC classic; type: cell-based; conditions: Homo sapiens, NCI-H69
H678 = assay: 72 hr cytotoxicity: SCLC classic; type: cell-based; conditions: Homo sapiens
H719 = assay: 72 hr cytotoxicity: SCLC classic; type: cell-based; conditions: Homo sapiens
H841 = assay: 72 hr cytotoxicity: SCLC variant; type: cell-based; conditions: Homo sapiens, NCI-H841
H889 = assay: 72 hr cytotoxicity: SCLC classic; type: cell-based; conditions: Homo sapiens, NCI-H889
[2] = system: Ewing's sarcoma cell lines; assay: Cytotoxicity on sarcoma panel; type: cell-based; conditions: Homo sapiens, read-out: IC50 range
[3] = system: Rhabdomyosarcoma cell lines; assay: Cytotoxicity on sarcoma panel; type: cell-based; conditions: Homo sapiens, read-out: IC50 range
Osteosarcoma cell lines = assay: Cytotoxicity on sarcoma panel; type: cell-based; conditions: Homo sapiens, osteosarcoma lines highly resistant to BO-1055 (BO-1055 3 of 5; doxorubicin two lines); read-out: IC50 range
Z-138 = assay: Drug combination cytotoxicity with BO-1055; type: cell-based, human
Granta = assay: Drug combination cytotoxicity with BO-1055; type: cell-based, human
REC-1 [4] = assay: Drug combination cytotoxicity with BO-1055; type: cell-based, human
Mino [5] = assay: Drug combination cytotoxicity with BO-1055; type: cell-based, human
NECB1 = assay: Drug combination cytotoxicity with BO-1055; type: cell-based, human
JEKO-1 = assay: Drug combination cytotoxicity with BO-1055; type: cell-based; conditions: Homo sapiens, JeKo-1, 72 h, read-out: IC50 single drug
HBL2 [6] = assay: Drug combination cytotoxicity with BO-1055; type: cell-based; conditions: Homo sapiens, HBL2, 72 h, read-out: IC50 single drug
[7] = system: normal cord blood CD34+ cells; assay: Cytotoxicity on normal cord blood CD34+ cells; type: cell-based; conditions: Homo sapiens, 72 h
A673 = assay: Cytotoxicity: Ewing's sarcoma; conditions: Homo sapiens, A673, read-out: cytotoxic activity (IC50)
Saos-1 = assay: Cytotoxicity: Osteosarcoma; conditions: Homo sapiens, read-out: cytotoxic activity (IC50)
U2OS = assay: Cytotoxicity: Osteosarcoma; conditions: Homo sapiens, read-out: cytotoxic activity (IC50)
TC-32 = assay: Cytotoxicity: Ewing's sarcoma; conditions: Homo sapiens, TC-32, read-out: cytotoxic activity (IC50)
HBL2 [8] = assay: Cytotoxicity: Mantle Cell Lymphoma; conditions: Homo sapiens
REC-1 [9] = assay: Cytotoxicity: Mantle Cell Lymphoma; conditions: Homo sapiens
[10] = system: spontaneous murine B-cell lymphoma; assay: Cytotoxicity: lymphoma cells with no stromal support; conditions: read-out: cytotoxicity IC50, Murine BCL, spontaneous CD19+
[11] = Homo sapiens, 72 h, read-out: IC50 single drug

## CNC(=O)c1cc(Oc2ccc(NC(=O)Nc3ccc(Cl)c(C(F)(F)F)c3)cc2)ccn1 [SOR]
Granta-519
  IC50: 28000 nM
Mino [1]
  IC50: 28000 nM
Ly10
  IC50: 28000 nM

## COc1cccc2c1C(=O)c1c(O)c3c(c(O)c1C2=O)C[C@@](O)(C(=O)CO)C[C@@H]3O[C@H]1C[C@H](N)[C@H](O)[C@H](C)O1 [Doxorubicin]
BCI-NSI hTERT
  IC50: 500 nM
FTE-hTERT
  IC50: 6250 nM
BMMSC
  IC50: 450 nM
H211
  IC50: 150 nM
H524
  IC50: 20 nM
H128
  IC50: 100 nM
H187
  IC50: 30 nM
H209
  IC50: 30 nM
H249
  IC50: 130 nM
H417
  IC50: 10 nM
H526
  IC50: 10 nM
H562
  IC50: 170 nM
H60
  IC50: 130 nM
H69
  IC50: 60 nM
H678
  IC50: 10 nM
H719
  IC50: 90 nM
H841
  IC50: 20 nM
H889
  IC50: 20 nM
[2]
  IC50: 5 to 380 nM
[3]
  IC50: 11 nM
Osteosarcoma cell lines
  IC50: 25 to 90 nM
Z-138
  interaction with BO-1055 (combo-1, combo-2): both combinations were synergistic
Z-138; Homo sapiens, Z-138, 72 h, read-out: IC50 single drug
  IC50: 438 nM
Granta
  interaction with BO-1055 (combo-1, combo-2): synergistic with combo-1 and antagonistic against combo-2
Granta; [11]
  IC50: 257 nM
REC-1 [4]
  interaction with BO-1055 (combo-1, combo-2): both combinations were antagonistic
REC-1 [4]; Homo sapiens, Rec1, 72 h, read-out: IC50 single drug
  IC50: > 10000 nM
Mino [5]
  interaction with BO-1055 (combo-1, combo-2): both combinations were synergistic
Mino [5]; Homo sapiens, MINO, 72 h, read-out: IC50 single drug
  IC50: 135 nM
NECB1
  interaction with BO-1055 (combo-1, combo-2): synergistic with combo-1 and antagonistic against combo-2
NECB1; [11]
  IC50: 1230 nM
JEKO-1
  IC50: 98 nM
HBL2 [6]
  IC50: 51 nM
[7]
  IC50: 200 nM
A673
  IC50: 380 nM
Saos-1
  IC50: 25 nM
U2OS
  IC50: 90 nM
TC-32
  IC50: 5 nM
HBL2 [8]; HBL2
  IC50: 28 nM
HBL2 [8]; HBL2, read-out: cytotoxicity IC50
  IC50: 30 nM
REC-1 [9]; Rec1
  IC50: 51 nM
REC-1 [9]; Rec1, read-out: cytotoxicity IC50
  IC50: 50 nM
[10]
  IC50: 124 nM
